Experimental data: patent US20160050935A1, “METHOD FOR CONTROLLING PARTICLE SIZE OF SILVER PARTICLES, SILVER PARTICLES, ANTIMICROBIAL AGENT CONTAINING SLIVER PARTICLES, AND USE THEREOF” (SOFSERA CORPORATION, priority 2013, published 2016)

Tested on: Escherichia coli (Gram-negative bacteria)
Test: Antibacterial test of silver particles-2 (bacteria count in tube 1 over time)
Format: cell-based
Procedure: A test similar to that in <5. Antibacterial test of silver particles-1> was carried out with use of Escherichia coli (Gram-negative bacteria), which is one of model organisms and by which bacteria are typified. Note that the test was carried out by a method similar to that in <5. Antibacterial test of silver particles-1>, except that a kind of the bacteria used in the test was changed. Therefore, the method of the test will not be described here, and only results of the test will be described.
FIG. 10 illustrates results of the test carried out with use of “1 mM CDT-Ag,” “5 mM CDT-Ag,” and “10 mM CDT-Ag.” More specifically, FIG. 10 illustrates results of, “0 (zero) h,” “0.5 h,” “1 (one) h,” and “2 h” after the silver particles were mixed with the bacteria, (i) taking out an LB culture medium from each of tubes 1 through 8 stored in an incubator and (ii) carrying out an operation K), that is, a result of incubating the bacteria at 37° C. for 24 hours by storing a petri dish, prepared in the operation K), in the incubator.

SMILES: O=C(O)CCCCCCCCCCS [Free CDT, 10-carboxy-1-decanthiol]
- bacteria count in the tube 1 (count at 0 h = 1) (0 h (set to 1 by assumption)): 1
- bacteria count in the tube 1 (count at 0 h = 1) (0.5 h after mixing): 1
- bacteria count in the tube 1 (count at 0 h = 1) (1 h after mixing): 1
- bacteria count in the tube 1 (count at 0 h = 1) (2 h after mixing): 1
- antibacterial activity (in words, from FIG. 10 and Table 3): did not have antibacterial activity
